Laboratory results: US9815839B2, “N-(1-(substituted-phenyl)ethyl)-9H-purin-6-amines as PI3K inhibitors” (Incyte Corporation, priority 2010, dated 2017)
Where a name gives a salt, the structure may show the parent alone.

These compounds were tested against T1, PI3Kδ (p110δ/p85α) (Homo sapiens, UniProt O00329) (assay: PI3Kδ scintillation proximity assay). Conditions: 20 μM ATP, 4 nM PI3Kδ.
T1 construct: purchased Millipore (Bedford, Mass.)
Type: biochemical
Source text: Example A: PI3Kδ Scintillation Proximity Assay
Materials: [γ-^33P]ATP (10 mCi/mL) was purchased from Perkin-Elmer (Waltham, Mass.). Lipid kinase substrate, D-myo-Phosphatidylinositol 4,5-bisphosphate (PtdIns(4,5)P2)D (+)-sn-1,2-di-O-octanoylglyceryl, 3-O-phospho linked (PIP2), CAS 204858-53-7, was purchased from Echelon Biosciences (Salt Lake City, Utah). PI3Kδ (p110δ/p85α) was purchased from Millipore (Bedford, Mass.). ATP, MgCl2, DTT, EDTA, MOPS and CHAPS were purchased from Sigma-Aldrich (St. Louis, Mo.). Wheat Germ Agglutinin (WGA) YSi SPA Scintillation Beads was purchased from GE healthcare life sciences (Piscataway, N.J.).
The kinase reaction was conducted in polystyrene 384-well matrix white plate from Thermo Fisher Scientific in a final volume of 25 μL. Inhibitors were first diluted serially in DMSO and added to the plate wells before the addition of other reaction components. The final concentration of DMSO in the assay was 0.5%. The PI3K assays were carried out at room temperature in 20 mM MOPS, pH 6.7, 10 mM MgCl2, 5 mM DTT and CHAPS 0.03%. Reactions were initiated by the addition of ATP, the final reaction mixture consisted of 20 μM PIP2,20 μM ATP, 0.2 μCi [γ-^33P] ATP, 4 nM PI3Kδ. Reactions were incubated for 210 minutes and terminated by the addition of 40 μL SPA beads suspended in quench buffer: 150 mM potassium phosphate pH 8.0, 20% glycerol. 25 mM EDTA, 400 µM ATP. The final concentration of SPA beads is 1.0 mg/mL. After the plate sealing, plates were shaken overnight at room temperature and centrifuged at 1800 rpm for 10 minutes, the radioactivity of the product was determined by scintillation counting on Topcount (Perkin-Elmer). IC50 determination was performed by fitting the curve of percent control activity versus the log of the inhibitor concentration using the GraphPad Prism 3.0 software.

T1 sequence (O00329 whole entry, species assumed): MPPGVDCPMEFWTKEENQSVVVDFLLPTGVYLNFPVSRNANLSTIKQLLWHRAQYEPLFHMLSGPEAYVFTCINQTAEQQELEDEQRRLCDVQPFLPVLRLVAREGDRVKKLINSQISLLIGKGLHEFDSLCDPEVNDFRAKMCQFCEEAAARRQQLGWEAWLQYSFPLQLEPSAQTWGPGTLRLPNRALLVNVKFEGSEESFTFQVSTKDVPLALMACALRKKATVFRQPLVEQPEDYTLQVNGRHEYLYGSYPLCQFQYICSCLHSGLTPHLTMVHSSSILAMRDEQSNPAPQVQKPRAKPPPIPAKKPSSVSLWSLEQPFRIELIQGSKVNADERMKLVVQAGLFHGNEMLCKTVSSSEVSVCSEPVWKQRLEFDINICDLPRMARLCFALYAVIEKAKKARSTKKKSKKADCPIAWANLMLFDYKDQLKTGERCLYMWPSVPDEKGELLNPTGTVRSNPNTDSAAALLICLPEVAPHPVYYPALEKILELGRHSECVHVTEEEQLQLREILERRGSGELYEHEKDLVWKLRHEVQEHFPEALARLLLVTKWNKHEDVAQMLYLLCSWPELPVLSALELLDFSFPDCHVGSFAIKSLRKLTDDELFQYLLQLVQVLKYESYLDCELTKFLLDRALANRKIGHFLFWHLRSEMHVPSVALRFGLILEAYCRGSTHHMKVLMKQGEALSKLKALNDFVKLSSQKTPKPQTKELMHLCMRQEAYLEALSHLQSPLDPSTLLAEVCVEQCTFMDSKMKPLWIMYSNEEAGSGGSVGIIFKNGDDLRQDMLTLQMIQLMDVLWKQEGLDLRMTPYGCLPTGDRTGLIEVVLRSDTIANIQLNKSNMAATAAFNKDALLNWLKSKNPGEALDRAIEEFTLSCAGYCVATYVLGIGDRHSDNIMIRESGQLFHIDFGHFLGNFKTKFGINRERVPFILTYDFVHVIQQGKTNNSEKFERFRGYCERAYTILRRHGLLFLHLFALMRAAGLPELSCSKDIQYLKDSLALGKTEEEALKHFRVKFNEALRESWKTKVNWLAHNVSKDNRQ
T1 sequence (P27986 whole entry partner, species assumed): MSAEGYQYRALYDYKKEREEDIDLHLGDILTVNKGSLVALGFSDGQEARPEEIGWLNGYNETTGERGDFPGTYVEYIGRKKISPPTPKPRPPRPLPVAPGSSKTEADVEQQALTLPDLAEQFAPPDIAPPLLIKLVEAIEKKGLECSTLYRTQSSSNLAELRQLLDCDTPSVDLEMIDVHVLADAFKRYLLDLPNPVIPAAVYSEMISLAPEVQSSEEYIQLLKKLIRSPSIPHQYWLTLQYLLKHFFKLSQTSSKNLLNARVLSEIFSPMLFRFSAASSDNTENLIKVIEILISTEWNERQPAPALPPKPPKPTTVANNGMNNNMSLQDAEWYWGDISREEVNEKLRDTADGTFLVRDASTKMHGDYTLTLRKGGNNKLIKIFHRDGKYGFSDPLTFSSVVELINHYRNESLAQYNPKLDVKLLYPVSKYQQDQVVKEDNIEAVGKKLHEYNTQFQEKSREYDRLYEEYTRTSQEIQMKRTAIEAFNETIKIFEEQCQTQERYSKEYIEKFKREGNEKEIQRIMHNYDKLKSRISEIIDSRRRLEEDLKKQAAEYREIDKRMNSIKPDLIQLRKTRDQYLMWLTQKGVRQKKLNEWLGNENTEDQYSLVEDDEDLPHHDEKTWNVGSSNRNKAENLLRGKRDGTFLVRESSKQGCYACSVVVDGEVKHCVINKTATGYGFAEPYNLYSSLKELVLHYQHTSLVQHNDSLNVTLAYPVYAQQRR

Compound	IC50
COc1c(C(C)Nc2ncnc3[nH]cnc23)cc(Cl)c(C)c1-c1cnc(N)nc1 (stereo not shown) [Example 115, N-{1-[3-(2-aminopyrimidin-5-yl)-5-chloro-2-methoxy-4-methylphenyl]ethyl}-9H-purin-6-amine]	< 50 nM
CC(Nc1ncnc2[nH]cnc12)c1cc(Cl)cc(-c2cncnc2)c1-c1cc(F)cc(F)c1 (stereo not shown) [Example 132, N-[1-(4-chloro-3′,5′-difluoro-6-pyrimidin-5-ylbiphenyl-2-yl)ethyl]-9H-purin-6-amine]	< 50 nM
COc1c(C(C)Nc2ncnc3[nH]cnc23)cc(Cl)c(C)c1-c1ccc(OC(F)(F)F)cc1 (stereo not shown) [Example 90, N-{1-[5-chloro-2-methoxy-6-methyl-4′-(trifluoromethoxy)biphenyl-3-yl]ethyl}-9H-purin-6-amine]	250 to 500 nM
COc1c(C(C)Nc2ncnc3[nH]cnc23)cc(Cl)c(C)c1-c1ccc(N)nc1 (stereo not shown) [Example 57, N-{1-[3-(6-aminopyridin-3-yl)-5-chloro-2-methoxy-4-methylphenyl]ethyl}-9H-purin-6-amine]	< 50 nM
COc1c(C(C)Nc2ncnc3[nH]cnc23)cc(Cl)c(C)c1-c1ccc(C(=O)N2CCCC2)c(F)c1 (stereo not shown) [Example 66, N-{1-[5-chloro-3′-fluoro-2-methoxy-6-methyl-4′-(pyrrolidin-1-ylcarbonyl)biphenyl-3-yl]ethyl}-9H-purin-6-amine]	< 50 nM
COc1c(C(C)Nc2ncnc3[nH]cnc23)cc(Cl)c(C)c1-c1ccc(F)c(C(N)=O)c1 (stereo not shown) [Example 61, 3′-Chloro-4-fluoro-6′-methoxy-2′-methyl-5′-[1-(9H-purin-6-ylamino)ethyl]biphenyl-3-carboxamide]	< 50 nM
COc1c(C(C)Nc2ncnc3[nH]cnc23)cc(Cl)c(C)c1-c1ccc(F)c(F)c1 (stereo not shown) [Example 105, N-[1-(5-chloro-3′,4′-difluoro-2-methoxy-6-methylbiphenyl-3-yl)ethyl]-9H-purin-6-amine]	< 50 nM
CCNC(=O)c1ccc(-c2c(C)c(Cl)cc(C(C)Nc3ncnc4[nH]cnc34)c2OC)cc1F (stereo not shown) [Example 64, 3′-chloro-N-ethyl-3-fluoro-6′-methoxy-2′-methyl-5′-[1-(9H-purin-6-ylamino)ethyl]biphenyl-4-carboxamid]	< 50 nM
COc1c(C(C)Nc2ncnc3[nH]cnc23)cc(Cl)c(C)c1-c1cnn(CC#N)c1 (stereo not shown) [Example 117, (4-{3-Chloro-6-methoxy-2-methyl-5-[1-(9H-purin-6-ylamino)ethyl]phenyl}-1H-pyrazol-1-yl)acetonitrile trifluoroacetate]	< 50 nM
Cc1c(Cl)cc(C(C)Nc2ncnc3[nH]cnc23)c(OCCN2CCOCC2)c1-c1ccncc1 (stereo not shown) [Example 126, N-{1-[5-Chloro-4-methyl-2-(2-morpholin-4-ylethoxy)-3-pyridin-4-ylphenyl]ethyl}-9H-purin-6-amine]	< 50 nM
COc1c(C(C)Nc2ncnc3[nH]cnc23)cc(Cl)c(C)c1-c1cc(F)cc(Cl)c1 (stereo not shown) [Example 85, N-[1-(3′,5-dichloro-5′-fluoro-2-methoxy-6-methylbiphenyl-3-yl)ethyl]-9H-purin-6-amine]	250 to 500 nM
CC(Nc1ncnc2[nH]cnc12)c1cc(Cl)c(CC#N)c(C#N)c1-c1cccc(F)c1 (stereo not shown) [Example 4, 4-Chloro-3-(cyanomethyl)-3′-fluoro-6-[1-(9H-purin-6-ylamino)ethyl]biphenyl-2-carbonitrile]	500 to 1000 nM
COc1c(C(C)Nc2ncnc3[nH]cnc23)cc(Cl)c(C)c1-c1ccc(OC(C)C)nc1 (stereo not shown) [Example 59, N-{1-[5-chloro-3-(6-isopropoxypyridin-3-yl)-2-methoxy-4-methylphenyl]ethyl}-9H-purin-6-amine]	100 to 250 nM
Cc1c(Cl)cc(C(C)Nc2ncnc3[nH]cnc23)c(C)c1-c1ccncc1 (stereo not shown) [Example 127, N-[1-(5-Chloro-2,4-dimethyl-3-pyridin-4-ylphenyl)ethyl]-9H-purin-6-amine]	< 50 nM

Results, then the compound that gave them:

IC50	Compound
< 50 nM	COc1c(C(C)Nc2ncnc3[nH]cnc23)cc(Cl)c(Cl)c1C1CN(CC(F)(F)F)C1 (stereo not shown) [Example 207, N-(1-{4,5-Dichloro-2-methoxy-3-[1-(2,2,2-trifluoroethyl)azetidin-3-yl]phenyl}ethyl)-9H-purin-6-amine bis(trifluoroacetate)]
< 50 nM	COc1c(C(C)Nc2ncnc3[nH]cnc23)cc(Cl)c(C)c1C1CNC(=O)C1 (single isomer, unassigned) [Example 192, 4-{3-chloro-6-methoxy-2-methyl-5-[1-(9H-purin-6-ylamino)ethyl]phenyl}pyrrolidin-2-one]
< 50 nM	COc1cncc(-c2c(C)c(Cl)cc(C(C)Nc3ncnc4[nH]cnc34)c2OCCN2CCOCC2)c1 (stereo not shown) [Example 157, N-{1-[5-chloro-3-(5-methoxy-pyridin-3-yl)-4-methyl-2-(2-mor-pholin-4-ylethoxy)-phenyl]-ethyl}-9H-purin-6-amine]
< 50 nM	COc1c(C(C)Nc2ncnc3[nH]cnc23)cc(Cl)c(C)c1-c1ccnnc1 (stereo not shown) [Example 163, N-[1-(5-Chloro-2-methoxy-4-methyl-3-pyridazin-4-ylphenyl)ethyl]-9H-purin-6-amine bis(trifluoroacetate)]
< 50 nM	COc1c(C(C)Nc2ncnc3[nH]cnc23)cc(Cl)c(C)c1-c1cscn1 (stereo not shown) [Example 164, N-{1-[5-Chloro-2-methoxy-4-methyl-3-(1,3-thiazol-4-yl)phenyl]ethyl}-9H-purin-6-amine trifluoroacetate]
< 50 nM	Cc1c(Cl)cc(C(C)Nc2ncnc3[nH]cnc23)c(OCCN2CCOCC2)c1-c1cncc(F)c1 (stereo not shown) [Example 162, N-{1-[5-chloro-3-(5-fluoro-pyridin-3-yl)-4-methyl-2-(2-mor-pholin-4-ylethoxy)-phenyl]-ethyl}-9H-purin-6-amine]
< 50 nM	CCOc1c(C(C)Nc2ncnc3[nH]cnc23)cc(C#N)c(F)c1-c1ccc(C(=O)N(C)C)nc1 (stereo not shown) [Example 211, 5-{3-Cyano-6-ethoxy-2-fluoro-5-[1-(9H-purin-6-ylamino)ethyl]phenyl}-N,N-dimethylpyridine-2-carboxamide bis(trifluoroacetate)]
< 50 nM	COc1c(C(C)Nc2ncnc3[nH]cnc23)cc(Cl)c(Cl)c1C1CN(CC#N)C1 (stereo not shown) [Example 206, (3-{2,3-Dichloro-6-methoxy-5-[1-(9H-purin-6-ylamino)ethyl]phenyl}azetidin-1-yl)acetonitrile bis(trifluoroacetate)]
50 to 100 nM	COc1c(-c2ccc(S(C)(=O)=O)cc2)cc(Cl)cc1C(C)Nc1ncnc2[nH]cnc12 (stereo not shown) [Example 142, N-{1-[5-chloro-2-methoxy-4′-(methylsulfonyl)-biphenyl-3-yl]ethyl}-9H-purin-6-amine]
< 50 nM	COc1c(C(C)Nc2ncnc3[nH]cnc23)cc(Cl)c(C)c1C(O)CN1CCOCC1 (stereo not shown) [Example 190, 1-{3-Chloro-6-methoxy-2-methyl-5-[1-(9H-purin-6-ylamino)ethyl]phenyl}-2-morpholin-4-ylethanol bis(trifluoroacetate)]
< 50 nM	CNC(=O)c1ccc(-c2c(C)c(Cl)cc(C(C)Nc3ncnc4[nH]cnc34)c2OCCN2CCOCC2)cc1Cl (stereo not shown) [Example 154]
< 50 nM	COc1c(C(C)Nc2ncnc3[nH]cnc23)cc(Cl)c(C)c1C1CNC1 (stereo not shown) [Example 165, N-[1-(3-azetidin-3-yl-5-chloro-2-methoxy-4-methylphenyl)ethyl]-9H-purin-6-amine bis(trifluoroacetate)]
< 50 nM	CCOc1c(C(C)Nc2ncnc3[nH]cnc23)cc(C)c(C#N)c1-c1cncc(S(C)(=O)=O)c1 (stereo not shown) [Example 186, 3-ethoxy-6-methyl-2-[5-(methylsulfonyl)pyridin-3-yl]-4-[1-(9H-purin-6-ylamino)ethyl]benzonitrile bis(2,2,2-trifluoroacetate)]
< 50 nM	COc1c(C(C)Nc2ncnc3[nH]cnc23)cc(Cl)c(C)c1C1CN(C)C1 (stereo not shown) [Example 171, N-{1-[5-Chloro-2-methoxy-4-methyl-3-(1-methylazetidin-3-yl)phenyl]ethyl}-9H-purin-6-amine bis(trifluoroacetate)]
< 50 nM	Cc1c(Cl)cc(C(C)Nc2ncnc3[nH]cnc23)c(OCCN2CCOCC2)c1-c1cncc(Cl)c1 (stereo not shown) [Example 151, N-{1-[5-chloro-3-(5-chloro-pyridin-3-yl)-4-methyl-2-(2-morpho-lin-4-yl-ethoxy)-phenyl]-ethyl}-9H-purin-6-amine]
< 50 nM	COc1c(C(C)Nc2ncnc3[nH]cnc23)cc(Cl)c(C)c1-c1ccc(C(C)(C)O)nc1 (stereo not shown) [Example 184, 2-(5-{3-chloro-6-methoxy-2-methyl-5-[1-(9H-purin-6-ylamino)ethyl]phenyl}pyridin-2-yl)propan-2-ol bis(2,2,2-trifluoroacetate)]
< 50 nM	COc1c(-c2ccc(F)nc2)cc(Cl)cc1C(C)Nc1ncnc2[nH]cnc12 (stereo not shown) [Example 147, N-{1-[5-chloro-3-(6-fluoropyridin-3-yl)-2-methoxyphenyl]-ethyl}-9H-purin-6-amine]
